These results are taken from patent US9549988B2, “Pharmaceutical compounds targeted by MIF affinity-tethered moieties” (RJS Biologics LLC, priority 2013, dated 2017).

For experiment [1], the system named is Normal Human Adult Dermal Fibroblasts (ATCC PCS-201-012). Kind of experiment: WST-8 cellular proliferation assay, primary dermal fibroblasts. Format: cell-based. The conditions noted are these: for IC50: read-out: IC50 1° Fibroblasts, Table 4, EGFRi derivatives. As to the method:
(§1) Assays were performed according to the manufactures instructions.
(In general: Tetrazolium dyes change colour on reduction, which living cells bring about.)

In experiment [2] the test system is large cell lung cancer cell lines (NCI-H460). Kind of experiment: WST-8 cellular proliferation assay, NCI-H460 lung cancer cells. The format is cell-based. Conditions: for IC50: Table 4, EGFRi derivatives, WST-8, read-out: IC50 Cancer Cells ATCC NCI-H460; for Selectivity: Table 4, 1° fibroblasts versus NCI-H460 cancer cells.
In experiment [3] the test system is Human tumor cell lines of a cancer screening panel. The experiment in a line: Sulforhodamine B (SRB) cellular proliferation assay, cancer screening panel. Conditions: 10 μM. Format: cell-based. The method, then: This example illustrates several in vitro experiments in predictive models of cancer to show the potential therapeutic utility of the disclosed compounds. Human tumor cell lines of a cancer screening panel were grown in RPMI 1640 medium containing 5% fetal bovine serum and 2 mM L-glutamine. Cells were inoculated into 96 well microtiter plates in 100 μL at plating densities ranging from 5,000 to 40,000 cells/well depending on the doubling time of individual cell lines. After cell inoculation, the microtiter plates were incubated at 37° C., 5% CO2, 95% air and 100% relative humidity for 24 h prior to addition of experimental drugs.
After 24 h, two plates of each cell line were fixed in situ with trichloroacetic acid (TCA), to represent a measurement of the cell population for each cell line at the time of drug addition (T=zero). Experimental drugs were solubilized in dimethyl sulfoxide at 400-fold the desired final maximum test concentration and stored frozen prior to use. […]
Following drug addition, the plates were incubated for an additional 48 h at 37° C., 5% CO2, 95% air, and 100% relative humidity. […] Bound stain was subsequently solubilized with 10 mM trizma base, and the absorbance was read on an automated plate reader at a wavelength of 515 nm. […] Using the seven absorbance measurements [time zero, (T=zero), control growth, (C), and test growth in the presence of drug at the five concentration levels (Ti)], the percentage growth was calculated at each of the drug concentrations levels.
Percentage growth inhibition was calculated as: [(Ti−Tzero)/(C−Tzero)]×100 for concentrations for which Ti>/=Tzero [(Ti−Tzero)/Tzero]×100 for concentrations for which Ti<Tzero. Three dose response parameters were calculated for each experimental agent. […] The drug concentration resulting in total growth inhibition (TGI) was calculated from Ti=Tzero. […] The same procedures were used to create FIGS. 19 and 20 except a single 10 μM data point was recorded for each cell line.

Experiment [4] has as its system large cell immunoblastic lymphoma cell lines (ATCC SR). The experiment in a line: WST-8 cellular proliferation assay, ATCC SR lymphoma cells. The format is cell-based. Conditions: Table 2; 1° fibroblasts versus ATCC SR cancer cells. As to the method:
as §1

For experiment [5], the system named is THP-1 leukemia cells mixed with non-cancerous PBMC cells. The experiment in a line: Flow cytometry drug uptake in mixed THP-1 / PBMC population. Format: cell-based, human. The conditions noted are these: FIG. 21; THP-1 added to PBMC; 0.8 μM; 2-2.5 h; PE channel. As to the method:
This example illustrates an in vitro experiment using predictive models of cancer to show the cellular specificity and potential therapeutic utility of the inventive compounds. The human leukemic cell line THP-1 was grown in RPMI 1640 medium with penicillin, streptomycin, and containing 25 mM Hepes, 0.05 mM 2-mercaptoethanol, 10% fetal bovine serum and 2 mM L-glutamine. Cells washed 2× with Gibco Life Sciences (Grand Island, N.Y.) AIM-V serum free medium and then were inoculated into 96 well microtiter plates in 100 μL at plating densities ranging from 25,000 to 100,000 cells/well. Five to ten million frozen peripheral blood mononuclear cells (PBMCs) (Astarte Biologics, LLC. (Redmond, Wash.)) in a solution of 10% DMSO, 2% human serum albumin in phosphate buffered saline were thawed and immediately washed in AIM-V media. An approximately equal number of these cells (25,000 to 100,000 cells/well) were added to the experimental plate. Doxorubicin was added to a final concentration of 0.8 μM. The microtiter plates were incubated at 37° C., 5% CO2, 95% air and 100% relative humidity for 2-2.5 h then drug uptake was quantified by flow cytometry for example using a BD FACSCanto II (San Jose, Calif.). Doxorubicin uptake was evaluated in the PE channel. Individual cell populations were identified by size, shape and through the use of dye labeled antibodies.
(Flow cytometry measures light scatter and fluorescence of single cells or particles in a stream.)

A further experiment concerns THP-1 leukemia cells. Kind of experiment: Flow cytometry uptake by THP-1 cells in presence of ISO-1. Conditions: FIG. 22, 2 hrs at 37° C. Format: cell-based, human. The method, then:
This example illustrates an in vitro experiment using predictive models of cancer to show the cellular specificity and potential therapeutic utility of the inventive compounds. The human leukemic cell line THP-1 was grown AIM-V serum free medium Gibco Life Sciences (Grand Island, N.Y.). […] Then the washed THP-1 cells were added to the drug dilutions to start the experiment ˜75,000 cells per well. Test compounds were incubated 2 hrs at 37° C., then the plate was read by flow cytometry BD Canto 2 (80 μl˜25,000 cells). A population of Single Round “average” cells was selected by FSC and SSC—constituting %70 of the total cell population examined. The amount of doxorubicin uptake was evaluated for this population in the PE channel.

Setting [6] is: FIG. 20, 14 diverse cancer cell lines.

Read-outs that look alike come from different tables or passages of the source.

One may read the IC50 as the midpoint of a concentration-inhibition curve. As for `COc1cc2ncnc(Nc3ccc(F)c(Cl)c3)c2cc1NC(=O)/C=C/CN1CCCCC1` [Docomitinib (PF-00299804), Docomitinib], the IC50 in experiment [1] was 0.89 µM. Further, in experiment [2], the half-maximal inhibitory concentration (IC50) turned out to be 10.6 µM and the Selectivity is listed as 0.08.

For the molecule `Cc1ccc2oc(=O)n(Cc3ccc(OCC(=O)O)c(O)c3)c2c1` [compound 7, (2-hydroxy-4-[(5-methyl-2-oxo-1,3-benzoxazol-3(2H)-yl)methyl]phenoxy)acetic acid], the “inhibition of cancer cell growth (average % inhibition)” value in experiment [3] (FIG. 19, 17 cancer cell lines) is “little if any potency”; in experiment [3] (setting [6]) it was “little potency”.

`COc1cccc2c1C(=O)c1c(O)c3c(c(O)c1C2=O)C[C@@](O)(C(=O)CO)C[C@@H]3O[C@H]1C[C@H](N)[C@H](O)[C@H](C)O1` [Doxorubicin] registered a Selectivity in experiment [4] of 26. Besides, the IC50 1° Fibroblasts in experiment [1] (Table 2, Doxorubicin derivatives) is 0.185 ± 0.5 µM. The “preferential cellular uptake by cancer cells over non-cancerous cells” value in experiment [5] is given as “little preference for the cancer cell line”. Besides, the “inhibition of cellular uptake by ISO-1” value with THP-1 leukemia cells is reported as “not inhibited”.

As for `COc1cc2c(Nc3ccc(F)c(Cl)c3)ncnc2cc1OCCOCCNC(=O)COc1ccc(Cn2c(=O)oc3ccc(C)cc32)cc1O` [RJS012_1], the IC50 in experiment [1] (Homo sapiens, Fibroblast) came to 6.7 µM; in experiment [2] (Homo sapiens, NCI-H460), 3.6 µM. For the same molecule, the Selectivity in experiment [2] stood at 1.9.

`Cc1ccc2oc(=O)n(Cc3ccc(OCC(=O)NCCC[C@@H]4O[C@@H]5O[C@@]6(C)CC[C@H]7[C@H](C)CC[C@@H]([C@H]4C)[C@@]57OO6)c(O)c3)c2c1` [compound 11, 2-(2-hydroxy-4-((5-methyl-2-oxobenzo[d]oxazol-3(2H)-yl)methyl)phenoxy)-N-(3-((3R,5aS,6R,8aS,9R,10S,12R,12aR)-3,6,9-trimethyldecahydro-12H-3,12-epoxy[1,2]dioxepino[4,3-i]isochromen-10-yl)propyl)acetamide]: the “inhibition of cancer cell growth (average % inhibition)” value in experiment [3] (setting [6]) was “substantial anti-cancer activity”.

With `C#Cc1cccc(Nc2ncnc3cc(OCCOC)c(OCCOC)cc23)c1` [Tarceva ® (Erlotinib), Erlotinib], the IC50 is 4.7 µM in experiment [1] (Homo sapiens, Fibroblast) and 12.6 µM in experiment [2] (Homo sapiens, NCI-H460). This molecule also displayed a Selectivity in experiment [2] of 0.37.
